Consider 19 compounds from patent publication US10723728B2, “Prodrugs of Nh-acidic compounds” (ALKERMES PHARMA IRELAND LIMITED, priority 2009, dated 2020).

SMILES strings stand for the structures.

A short description of data set [1]: Pharmacokinetic evaluation of prodrugs in rats following intramuscular injection. Format: in vivo, Male Sprague-Dawley rats. To be noted: rat, IM injection. On the procedure: Male Sprague-Dawley rats (Charles River Laboratories, Wilmington, Mass.) were obtained. Approximately 24 rats were used in each study. Rats were approximately 350-375 g at time of arrival. Rats were housed 2 per cage with ad libitum chow and water. Environmental conditions in the housing room: 64-67 OF, 30% to 70% relative humidity, and 12:12-h light:dark cycle. All experiments were approved by the institutional animal care and use committee.
(§1) Rats were dosed IM by means of a 25 gauge, ⅝ inch needle with 1 cc syringe 0.3 mL suspension was withdrawn from the vial containing the test compound (see Table E). The […] was injected in the muscles of the hind limb after anesthesia with isoflourane. Blood samples were collected via a lateral tail vein after brief anesthesia with Isoflurane. A 27½-G needle and 1 cc syringe without an anticoagulant was used for the blood collection. Approximately 350 μL of whole blood was collected at each sampling time-point of 6 hours, 24 hours and 2, 5, 7, 9, 12, 14, 21, 28, 35 days after administration. Once collected, whole blood was immediately transferred to tubes containing K2 EDTA, inverted 10-15 times and immediately placed on ice. The tubes were centrifuged for 2 minutes at >14,000 g's (11500 RPMs using Eppendorf Centrifuge 5417C, F45-30-11 rotor) at room temperature to separate plasma. Plasma samples were transferred to labeled plain tubes (MICROTAINER®) and stored frozen at <−70° C.
(§2) Drug concentrations in plasma samples were analyzed by liquid chromatography-mass spectroscopy using appropriate parameters for each compound. Half-life, volume of distribution, clearance, maximal concentration, and AUC were calculated by using WinNonlin Version 5.2_software (Pharsight, St. Louis, Mo.).

In data set [2] the test system is D-Amphetamine-induced locomotion. Kind of data set: Pharmacodynamic study in amphetamine-induced locomotion model. The conditions noted are these: D-AMPH 1.5 mg/kg IP.
Data set [3] in a line: Pharmacokinetic study for pioglitazone, Compounds 1002 and 1008. Type of data set: in vivo, rats. The conditions noted are these: rat, intramuscular; pioglitazone prodrug, crystalline material in 2% CMC, 0.2% Tween 20, PBS buffer pH 6.7; dose 67 mg/kg in table. On the procedure:
as §1, §2
PK profile of compounds 1002 and 1008 was compared to pioglitazone using a similar model as described above. 20 mg of pioglitazone or 20 mg equivilant of pioglitazone prodrug was administered intramuscularly.

Setting [4] is: crystalline suspension or oil emulsion.
Setting [5] is: PO, at the higher dose of 20 mg.
Setting [6] is: solution in ethyl oleate, dose (mg/kg).
Where [7] appears, read: oral oil solution (PO), 0.66, 10 and 20 mg/rat.

On to `CC(C)C(=O)OCN1C(=O)CCc2ccc(OCCCCN3CCN(c4cccc(Cl)c4Cl)CC3)cc21` [Compound 32, (7-(4-(4-(2,3-dichlorophenyl)piperazin-1-yl)butoxy)-2-oxo-3,4-dihydroquinolin-1(2H)-yl)methyl isobutyrate], for which, in data set [1] (setting [4]), the AUC0-14 was 1334.4 ng·days/mL and the AUC0-T was 1486 ng·days/mL.

On to `CCCCCCCCCCCC(=O)OCN1C(=O)CCc2ccc(OCCCCN3CCN(c4cccc(Cl)c4Cl)CC3)cc21` [Compound 7, (7-(4-(4-(2,3-dichlorophenyl)piperazin-1-yl)butoxy)-2-oxo-3,4-dihydroquinolin-1(2H)-yl)methyl dodecanoate], for which, in data set [1] (setting [4]), the AUC0-14 was found to be 512.0 ng·days/mL and the AUC0-T came to 1169.5 ng·days/mL. Also, the “inhibition of increase in total distance traveled caused by D-AMPH” value (from here on “inhibition of increase”) in data set [2] (setting [5]) was “did appear to significantly inhibit increases in distance traveled caused by D-AMPH”.

As to `CC(C)OC(=O)OCN1C(=O)CCc2ccc(OCCCCN3CCN(c4cccc(Cl)c4Cl)CC3)cc21` [Compound 48, (7-(4-(4-(2,3-dichlorophenyl)piperazin-1-yl)butoxy)-2-oxo-3,4-dihydroquinolin-1(2H)-yl)methyl isopropyl carbonate], in data set [1] (setting [4]), the AUC0-14 amounted to 2238 ng·days/mL and the AUC0-T is 2264.6 ng·days/mL.

With `CCCCCCCC(=O)OCN1C(=O)CCc2ccc(OCCCCN3CCN(c4cccc(Cl)c4Cl)CC3)cc21` [Compound 5, (7-(4-(4-(2,3-dichlorophenyl)piperazin-1-yl)butoxy)-2-oxo-3,4-dihydroquinolin-1(2H)-yl)methyl octanoate], in data set [1] (setting [4]), the AUC0-14 worked out at 1728.6 ng·days/mL and the AUC0-T turned out to be 1742 ng·days/mL.

Regarding `O=C(OCN1C(=O)CCc2ccc(OCCCCN3CCN(c4cccc(Cl)c4Cl)CC3)cc21)c1ccccc1` [Compound 31, (7-(4-(4-(2,3-dichlorophenyl)piperazin-1-yl)butoxy)-2-oxo-3,4-dihydroquinolin-1(2H)-yl)methyl benzoate], in data set [1] (setting [4]), the AUC0-14 worked out at 819.0 ng·days/mL and the AUC0-T is 997 ng·days/mL.

Regarding `CCCCCCOC(=O)OCN1C(=O)CCc2ccc(OCCCCN3CCN(c4cccc(Cl)c4Cl)CC3)cc21` [Compound 81, (7-(4-(4-(2,3-dichlorophenyl)piperazin-1-yl)butoxy)-2-oxo-3,4-dihydroquinolin-1(2H)-yl)methyl hexyl carbonate], the AUC0-14 in data set [1] (setting [6]) amounted to 584 ng·days/mL.

With `CNC(=O)OCN1C(=O)CCc2ccc(OCCCCN3CCN(c4cccc(Cl)c4Cl)CC3)cc21` [Compound 47, (7-(4-(4-(2,3-dichlorophenyl)piperazin-1-yl)butoxy)-2-oxo-3,4-dihydroquinolin-1(2H)-yl)methyl methylcarbamate], in data set [1] (setting [4]), the AUC0-14 stood at 113 ng·days/mL and the AUC0-T stood at 176 ng·days/mL. In addition, the “inhibition of increase” value in data set [2] (setting [5]) is listed as “did appear to significantly inhibit increases in distance traveled caused by D-AMPH”.

Turning to `CCCCCCCCCCCCCCCC(=O)OCN1C(=O)SC(Cc2ccc(OCCc3ccc(CC)cn3)cc2)C1=O` (stereo not shown) [Compound 1008, (5-(4-(2-(5-ethylpyridin-2-yl)ethoxy)benzyl)-2,4-dioxothiazolidin-3-yl)methyl palmitoate], in data set [3], the AUC0-14 came out at 5000 ng·days/mL and the AUC0-T stood at 6763 ng·days/mL.

As to `CCCCCCCCCC(=O)OCN1C(=O)CCc2ccc(OCCCCN3CCN(c4cccc(Cl)c4Cl)CC3)cc21` [Compound 6, (7-(4-(4-(2,3-dichlorophenyl)piperazin-1-yl)butoxy)-2-oxo-3,4-dihydroquinolin-1(2H)-yl)methyl decanoate], in data set [1] (setting [4]), the AUC0-14 was 1490.3 ng·days/mL and the AUC0-T is 1678.1 ng·days/mL. In data set [1] (setting [6]), the AUC0-14 was found to be 67 ng·days/mL and the AUC0-T is 327 ng·days/mL.

For the compound `CCCCCC(=O)OCN1C(=O)CCc2ccc(OCCCCN3CCN(c4cccc(Cl)c4Cl)CC3)cc21` [Compound 4, (7-(4-(4-(2,3-dichlorophenyl)piperazin-1-yl)butoxy)-2-oxo-3,4-dihydroquinolin-1(2H)-yl)methyl hexanoate], in data set [1] (setting [4]), the AUC0-14 was 1455.4 ng·days/mL and the AUC0-T came out at 1678 ng·days/mL. Further, in data set [2] (setting [7]), the “dose dependence of inhibition of distance travelled” value was “did not appear to be dose dependent” and the “inhibition of increase” value is recorded as “significantly inhibited the increases in distance traveled caused by D-AMPH”.

Take `CCCC(=O)OCN1C(=O)SC(Cc2ccc(OCCc3ccc(CC)cn3)cc2)C1=O` (stereo not shown) [Compound 1002, (5-(4-(2-(5-ethylpyridin-2-yl)ethoxy)benzyl)-2,4-dioxothiazolidin-3-yl)methyl butyrate]: in data set [3], the AUC0-14 was found to be 5350 ng·days/mL and the AUC0-T was determined as 5972 ng·days/mL.

Consider `CC(=O)OCN1C(=O)CCc2ccc(OCCCCN3CCN(c4cccc(Cl)c4Cl)CC3)cc21` [Compound 1, (7-(4-(4-(2,3-dichlorophenyl)piperazin-1-yl)butoxy)-2-oxo-3,4-dihydroquinolin-1(2H)-yl)methyl acetate], for which, in data set [1] (setting [4]), the AUC0-14 amounted to 1673 ng·days/mL and the AUC0-T came to 1938 ng·days/mL.

Turning to `CCOC(=O)OCN1C(=O)CCc2ccc(OCCCCN3CCN(c4cccc(Cl)c4Cl)CC3)cc21` [Compound 79, (7-(4-(4-(2,3-dichlorophenyl)piperazin-1-yl)butoxy)-2-oxo-3,4-dihydroquinolin-1(2H)-yl)methyl ethyl carbonate], the AUC0-14 is 907.4 ng·days/mL in data set [1] (setting [4]) and 954 ng·days/mL in data set [1] (setting [6]). The AUC0-T in data set [1] (setting [4]) worked out at 940 ng·days/mL.

With `CCCCCCCCCCCCCCCC(=O)OCN1C(=O)CCc2ccc(OCCCCN3CCN(c4cccc(Cl)c4Cl)CC3)cc21` [Compound 10, (7-(4-(4-(2,3-dichlorophenyl)piperazin-1-yl)butoxy)-2-oxo-3,4-dihydroquinolin-1(2H)-yl)methyl palmitate], in data set [1] (setting [4]), the AUC0-14 amounted to 302 ng·days/mL and the AUC0-T was found to be 786.6 ng·days/mL.

With `O=C(OCN1C(=O)CCc2ccc(OCCCCN3CCN(c4cccc(Cl)c4Cl)CC3)cc21)C1CCC1` [Compound 34, (7-(4-(4-(2,3-dichlorophenyl)piperazin-1-yl)butoxy)-2-oxo-3,4-dihydroquinolin-1(2H)-yl)methyl cyclobutanecarboxylate], in data set [1] (setting [4]), the AUC0-14 is 2050 ng·days/mL and the AUC0-T stood at 2095.8 ng·days/mL.

For `O=C(OCN1C(=O)CCc2ccc(OCCCCN3CCN(c4cccc(Cl)c4Cl)CC3)cc21)N1CCOCC1` [Compound 49, (7-(4-(4-(2,3-dichlorophenyl)piperazin-1-yl)butoxy)-2-oxo-3,4-dihydroquinolin-1(2H)-yl)methyl morpholine-4-carboxylate], in data set [1] (setting [4]), the AUC0-14 is 152 ng·days/mL and the AUC0-T amounted to 199.7 ng·days/mL.

Take `CCCCCCCCCCOC(=O)OCN1C(=O)CCc2ccc(OCCCCN3CCN(c4cccc(Cl)c4Cl)CC3)cc21` [Compound 82, decyl (7-(4-(4-(2,3-dichlorophenyl)piperazin-1-yl)butoxy)-2-oxo-3,4-dihydroquinolin-1(2H)-yl)methyl carbonate]: the AUC0-14 in data set [1] (setting [6]) was 204 ng·days/mL.

For `CCCC(=O)OCN1C(=O)CCc2ccc(OCCCCN3CCN(c4cccc(Cl)c4Cl)CC3)cc21` [Compound 2, (7-(4-(4-(2,3-dichlorophenyl)piperazin-1-yl)butoxy)-2-oxo-3,4-dihydroquinolin-1(2H)-yl)methyl butyrate], in data set [1] (setting [4]), the AUC0-14 turned out to be 1016.9 ng·days/mL and the AUC0-T amounted to 1139.8 ng·days/mL.

Regarding `CC(C)CCOC(=O)OCN1C(=O)CCc2ccc(OCCCCN3CCN(c4cccc(Cl)c4Cl)CC3)cc21` [Compound 85, (7-(4-(4-(2,3-dichlorophenyl)piperazin-1-yl)butoxy)-2-oxo-3,4-dihydroquinolin-1(2H)-yl)methyl isopentyl carbonate], in data set [1] (setting [4]), the AUC0-14 stood at 1233.9 ng·days/mL and the AUC0-T was 1348 ng·days/mL.
